Assays:
[1] = system: RAD50Δ mutant; type: cell-based, Saccharomyces cerevisiae; conditions: RAD50Δ mutant compared with W303a
From the text: (§1) FIG. 11A-D: Methyl iodide production in recombinant S. cerevisiae. FIG. 11A. CH3I production pathway. The B. maritima MHT is expressed with a N-terminal vacuole targeting tag. The […] MHT methylates iodide ions using SAM as a methyl donor. FIG. 11B, CH3I measured in culture headspace over time. Activity on glucose-grown cells is shown. FIG. 11C, CH3I yields in grams per liter of culture per day. Values for the culturable red algae E. muricata are taken from the literature. Yields from B. maritima MHT-expressing E. coli and S. cerevisiae are calculated by comparison to standard curves. FIG. 11D, CH3I toxicity in yeast. Exponential phase cultures were diluted to an OD600 of 0.05 and commercially available CH3I was added. OD600 was measured at 24 hours of growth. The W303a lab strain is shown in filled boxes, the DNA methylation-sensitive RAD50Δ mutant is shown in open boxes.
(§2) Individual colonies were inoculated in YP media with 2% glucose and grown overnight. Cultures were diluted to an OD600 of 0.05 and methyl iodide was added to the specified amount. […] OD600 was measured by spectrometry with YP media used as a blank. Each data point was performed in triplicate. The RAD50Δ mutant was obtained from the Saccharomyces Genome Deletion Project (Invitrogen).

[2] = system: S. cerevisiae W303a; experiment: Methyl iodide toxicity assay in yeast; type: cell-based, Saccharomyces cerevisiae; conditions: OD600 at 24 hours of growth, commercially available CH3I added
From the text: as §1, §2

[3] = target: methyl halide transferase (Batis maritima, UniProt Q9ZSZ7); conditions: halide ion as substrate; Attieh et al. 1995, Ni and Hager 1999; cited from earlier work
Chain of methyl halide transferase (Q9ZSZ7 1-230): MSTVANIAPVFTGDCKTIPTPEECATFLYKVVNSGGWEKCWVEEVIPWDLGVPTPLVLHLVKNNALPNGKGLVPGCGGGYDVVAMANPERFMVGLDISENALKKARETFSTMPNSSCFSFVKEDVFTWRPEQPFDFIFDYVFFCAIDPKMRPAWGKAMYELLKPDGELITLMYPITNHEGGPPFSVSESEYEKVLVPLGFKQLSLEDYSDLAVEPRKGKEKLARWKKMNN

SMILES	sensitivity to methyl iodide [1]	level up to which yeast were resistant to deleterious methylating effects of methyl iodide [2] [µg/mL]	Km [3] [mM]
CI [methyl iodide]	increased sensitivity	> 5000	
[Br-].[K+] [Br^−, bromide]			18.5
I [I^−, iodide]			8.5

Reference: US20110151534A1, “[…] ORGANIC COMPOUNDS USING R[…] […] HALIDE TRANSFERASE” (priority 2007, published 2011)
